Laboratory results from ChEMBL document CHEMBL1159217, “Anti-inflammatory activity of saikosaponins from Heteromorpha trifoliata” (1995).

Legend:
Assay type in all cases: functional
Mus musculus [1] = experiment: Antiinflammatory activity in Swiss mouse assessed as inhibition of 12-O-tetradecanoylphorbol acetate-induced ear edema at 0.5 mg/ear administered tropically
Mus musculus [2] = experiment: Antiinflammatory activity in Swiss mouse assessed as inhibition of carrageenan-induced ear edema at 100 mg/kg, po administered 1 hr prior to carrageenan challenge measured after 3 hrs
Mus musculus [3] = experiment: Antiinflammatory activity in Swiss mouse assessed as inhibition of serotonin-induced ear edema at 50 mg/kg, sc in presence of actinomycin D administered simultaneously and 1.5 hrs after compound treatment for 3 hrs; set-up: scale not given: the % may be the effect or the level left; conditions: route subcutaneous
Mus musculus [4] = experiment: Antiinflammatory activity in Swiss mouse assessed as inhibition of serotonin-induced ear edema at 50 mg/kg, sc; conditions: route subcutaneous
Mus musculus [5] = experiment: Antiinflammatory activity in Swiss mouse assessed as inhibition of ethylphenylpropiolate-induced ear edema at 0.5 mg/ear administered tropically 16 hrs prior to ethylphenylpropiolate challenge
Mus musculus [6] = experiment: Antiinflammatory activity in Swiss mouse assessed as inhibition of serotonin-induced ear edema at 50 mg/kg, sc in presence of cycloheximide administered simultaneously and 1.5 hrs after compound treatment for 3 hrs; set-up: scale not given: the % may be the effect or the level left; conditions: route subcutaneous
Mus musculus [7] = experiment: Antiinflammatory activity in Swiss mouse assessed as inhibition of serotonin-induced ear edema at 50 mg/kg, sc in presence of progesterone administered 1 hr prior to compound treatment; conditions: route subcutaneous

**Q.** Which results are given for `CO[C@@H]1C=C2[C@@H]3CC(C)(C)CC[C@]3(CO)[C@@H](O)C[C@@]2(C)[C@]2(C)CC[C@H]3[C@](C)(CO)[C@@H](O[C@@H]4O[C@H](C)[C@H](O)[C@H](O[C@@H]5O[C@H](CO)[C@@H](O)[C@H](O)[C@H]5O)[C@H]4O[C@@H]4O[C@H](CO)[C@@H](O)[C@H](O)[C@H]4O)CC[C@]3(C)[C@@H]12`?
**A.** inhibition (INH) (Mus musculus [1]): 87%; inhibition in vivo at 100 mg/kg (Mus musculus [2]): 18%

**Q.** With `C[C@H]1O[C@@H](O[C@H]2CC[C@@]3(C)[C@@H](CC[C@]4(C)[C@@H]3C=C[C@]35OC[C@@]6(CCC(C)(C)C[C@H]63)[C@@H](O)C[C@]54C)[C@]2(C)CO)[C@H](O[C@@H]2O[C@H](CO)[C@@H](O)[C@H](O)[C@H]2O)[C@@H](O[C@@H]2O[C@H](CO)[C@@H](O)[C@H](O)[C@H]2O)[C@H]1O` [BUDDLEJASAPONIN IV] as the molecule, how does the Activity (Mus musculus [3]) read?
**A.** 14%

**Q.** What about the inhibition in vivo at 50 mg/kg (Mus musculus [4]) of the same molecule?
**A.** 48%

**Q.** What about the “inhibition (INH)” value (Mus musculus [1]) of the same molecule?
**A.** 89%

**Q.** And the “inhibition (INH)” value (Mus musculus [5])?
**A.** 59%

**Q.** And the inhibition in vivo at 100 mg/kg (Mus musculus [2])?
**A.** 23%

**Q.** What about the Activity (Mus musculus [6]) of the same molecule?
**A.** 14%

**Q.** With `C[C@@H]1C[C@H]2[C@@H]3CCC4=CC(=O)C=C[C@]4(C)[C@@]3(F)[C@@H](O)C[C@]2(C)[C@@]1(O)C(=O)CO` [DEXAMETHASONE] as the molecule, how does the “inhibition (INH)” value (Mus musculus [5]) read?
**A.** 82%

**Q.** `COc1ccc2c(c1)c(CC(=O)O)c(C)n2C(=O)c1ccc(Cl)cc1` [INDOMETHACIN] was tested. Which “inhibition (INH)” value (Mus musculus [1]) did it give?
**A.** 89%

**Q.** How did the inhibition in vivo at 50 mg/kg (Mus musculus [7]) turn out when `CC(=O)[C@H]1CC[C@H]2[C@@H]3CCC4=CC(=O)CC[C@]4(C)[C@H]3CC[C@]12C` [PROGESTERONE] was run?
**A.** 44%
